Laboratory results from US7259004B1, “Endophytic streptomycetes from higher plants with biological activity” (Montana State University, priority 2002, dated 2007).
≈ marks a conversion by molar mass, not a printed value.

What was measured:
[1] = test system: Pseudomonas aeruginosa ATCC 27853; assay: disk diffusion assay; assay type: cell-based; conditions: kakadumycin B at 10 μg; control antibiotic; MHA 35° C.
[2] = test system: Enterococcus faecalis ATCC 51299; assay: disk diffusion assay; assay type: cell-based; conditions: for Disk Diffusion, Enterococcus faccalis (VRE) 51299: kakadumycin B at 10 μg, control antibiotic, MHA 35° C.
[3] = test system: Acinetobacter sp. ATCC 49137; assay: disk diffusion assay; assay type: cell-based; conditions: for Disk Diffusion, Acinetobacter spp. 49137: kakadumycin B at 10 μg, control antibiotic, MHA 35° C.
[4] = test system: Streptococcus pneumoniae ATCC 49619; assay: disk diffusion assay; assay type: cell-based; conditions: for Disk Diffusion, Streptococcus pneumoniae 49619: kakadumycin B at 10 μg, control antibiotic, MHA w/5% dsb 35° C. w/5% CO2
Bacillus anthracis K8902 = assay type: cell-based; conditions: 10 micrograms per disk; ciprofloxacin 5, vancomycin 30 micrograms per disk; 35° C.
[5] = test system: Shigella dysenteriae ATCC 11835; assay: disk diffusion assay; assay type: cell-based; conditions: kakadumycin B at 10 μg; control antibiotic; MHA 35° C.
[6] = test system: Enterococcus faecium ATCC 49624; assay: disk diffusion assay; assay type: cell-based; conditions: for diameter of the zone of inhibition, Enterococcus faecium ATCC 49624: 10 micrograms per disk, ciprofloxacin 5, vancomycin 30 micrograms per disk, 35° C.
[7] = test system: Enterococcus faecium ATCC 51559; assay: disk diffusion assay; assay type: cell-based; conditions: 10 micrograms per disk; ciprofloxacin 5, vancomycin 30 micrograms per disk; 35° C.
[8] = test system: DNA synthesis in Bacillus subtilis; assay: macromolecular synthesis whole cell assay, [3H]thymidine incorporation; assay type: cell-based; conditions: 1×MIC
[9] = test system: Burkholderia cepacia ATCC 25416; assay: disk diffusion assay; conditions: kakadumycin B at 10 μg; control antibiotic; MHA 35° C.
[10] = test system: Klebsiella pneumoniae ATCC 10031; assay: disk diffusion assay; conditions: MHA 35° C.
[11] = test system: Staphylococcus aureus (MRSA) ATCC 33591; assay: disk diffusion assay; conditions: MHA 35° C.
[12] = test system: Enterococcus faecalis ATCC 29212; assay: disk diffusion assay; assay type: cell-based
[13] = test system: Staphylococcus aureus ATCC 29213; assay: disk diffusion assay; assay type: cell-based
[14] = test system: Neisseria gonnorhea ATCC 49226; assay: disk diffusion assay; assay type: cell-based; conditions: 10 micrograms per disk; ciprofloxacin 5, vancomycin 30 micrograms per disk; GC agar with 1% growth supplement with 5% CO2
[15] = test system: Staphylococcus aureus ATCC 33591 (MRSA); assay: microbroth dilution MIC; assay type: cell-based; conditions: Staphylococcus aureus; Table 15
S. epidermis 12228 = assay: microbroth dilution MIC; assay type: cell-based, Staphylococcus epidermidis; conditions: Staphylococcus epidermidis, ATCC12228; Table 15; read-out: MIC Staphylococcus epidermidis ATCC 12228
E. faecium 49624 = assay: microbroth dilution MIC; assay type: cell-based, Enterococcus faecium; conditions: Enterococcus faecium, ATCC49624; Table 15; read-out: MIC Enterococcus faecium ATCC 49624
S. aureus 29213 = assay: microbroth dilution MIC; assay type: cell-based, Staphylococcus aureus; conditions: Staphylococcus aureus, ATCC29213; Table 15; read-out: MIC Staphylococcus aureus ATCC 29213
[16] = test system: Listeria monocytogenes 19114; assay: microbroth dilution MIC; assay type: cell-based; conditions: Listeria monocytogenes, ATCC19114; Table 15; read-out: MIC Listeria monocytogenes ATCC 19114
[17] = test system: Listeria monocytogenes 19115; assay: microbroth dilution MIC; assay type: cell-based; conditions: Listeria monocytogenes, ATCC19115; Table 15; read-out: MIC Listeria monocytogenes ATCC 19115
[18] = test system: Staphylococccus simulans 11631; assay: microbroth dilution MIC; assay type: cell-based, Staphylococcus simulans; conditions: Staphylococcus simulans, ATCC11631; Table 15; read-out: MIC Staphylococcus simulans ATCC 11631
[19] = test system: Staphylococccus aureus 27734; assay: microbroth dilution MIC; assay type: cell-based, Staphylococcus aureus; conditions: Staphylococcus aureus, ATCC27734; Table 15; read-out: MIC Staphylococcus aureus ATCC 27734
[20] = test system: Streptococcus pneumoniae 49619; assay: microbroth dilution MIC; assay type: cell-based; conditions: Streptococcus pneumoniae, ATCC49619; Table 15; read-out: MIC Streptococcus pneumoniae ATCC 49619
[21] = test system: Shigella dysenteriae ATCC 11835; assay: microbroth dilution MIC; assay type: cell-based; conditions: ATCC11835, read-out: MIC Shigella dysenteriae ATCC 11835
[22] = test system: Staphylococcus aureus GISA, ATCC 700787; assay: microbroth dilution MIC; assay type: cell-based; conditions: ATCC700787, read-out: MIC Staphylococcus aureus GISA, ATCC 700787
[23] = test system: Streptococcus pneumoniae ATCC 70674; assay: microbroth dilution MIC; assay type: cell-based; conditions: ATCC70674, read-out: MIC Streptococcus pneumoniae ATCC 70674
[24] = test system: Streptococcus pneumoniae ATCC 70676; assay: microbroth dilution MIC; assay type: cell-based; conditions: ATCC70676, read-out: MIC Streptococcus pneumoniae ATCC 70676
B. subtilis 1A757 = assay: microbe, parasite or virus in culture; assay type: cell-based, Bacillus subtilis
S. aureus ATCC 6583P = assay: MIC with and without double stranded DNA; assay type: cell-based, Staphylococcus aureus; conditions: Staphylococcus aureus, ATCC6583P, read-out: MIC S. aureus ATCC 6583P
[25] = test system: Cell wall synthesis in Bacillus subtilis; assay: macromolecular synthesis whole cell assay, [3H]N-acetyl glucosamine incorporation; assay type: cell-based; conditions: 1×MIC
[26] = test system: Staphyloccus aureus MH II Eli Lilly Co.; assay: microbroth dilution MIC; conditions: Staphylococcus aureus, read-out: MIC Staphyloccus aureus MH II Eli Lilly Co.
[27] = test system: Escherichia coli ATCC 25922; assay: disk diffusion assay; assay type: cell-based; conditions: kakadumycin B at 10 μg; control antibiotic; MHA 35° C.
S. epidermis ATCC 12228 = assay: disk diffusion assay; assay type: cell-based, Staphylococcus epidermidis; conditions: kakadumycin B at 10 μg; control antibiotic; MHA 35° C.
[28] = test system: S. maltophilia ATCC 13637; assay: disk diffusion assay; assay type: cell-based, Stenotrophomas maltophilia; conditions: kakadumycin B at 10 μg; control antibiotic; MHA 35° C.
[29] = test system: Human Breast Cancer Epithelial BT-20; assay: CellTiter 96 Aqueous Non-Radioactive Cell Proliferation Assay; assay type: cell-based; conditions: text of Examples 15, 18, 19
Experimental: (§1) The munumbicins were then tested against three human cancer cell lines (ATCC) and human primary mammary epithelial cells (HMECs) (Clonetics; Biowhittaker, Walkersville, Md.) using a CellTiter 96® Aqueous Non-Radioactive Cell Proliferation Assay kit from Promega (Madison, Wis.). The cell lines were A-549 (lung epithelial carcinoma, ATCC CCL-185), ME-180 (cervical epithelial epidermoid carcinoma, ATCC HTB-33), and BT-20 (breast epithelial cancer, ATCC HTB-19), and were grown in the media recommended by ATCC. The primary mammary cells were cultured as recommended by the manufacturer in mammary epithelial cell growth media (MEGM®). […] After seeding, the cells were incubated for five hours at 37° C. before addition of the munumbicins. Two-fold serial dilutions of the munumbicins were made in the culture medium, and a volume equal to that of the seeded cells for each dilution was added to three wells of cells. Each plate also contained some wells with cells plus medium only and some wells with medium only. […] The A-549 and ME-180 cells were incubated for 48 hours. […] The plates were incubated at 37° C. for one to four hours, and the OD490 was determined. The OD reading of all wells was corrected for background by subtracting the reading of wells containing medium only. […] Kakadumycin A was tested against three human cancer cell lines (ATCC) and human primary mammary epithelial cells using the procedure described above for the munumbicins. Kadadumycin B was tested against one human cancer cell line.

[30] = test system: Human Primary Mammary Epithelial HMEC; assay: as above; assay type: cell-based
Experimental: as §1

[31] = test system: Salmonella typhimurium ATCC 13311; assay: disk diffusion assay; conditions: kakadumycin B at 10 μg; control antibiotic; MHA 35° C.
[32] = test system: Micrococcus luteus ATCC 9341; assay: disk diffusion assay; conditions: kakadumycin B at 10 μg; control antibiotic; MHA 35° C.
[33] = test system: Staphylococcus aureus (GISA) ATCC 700699; assay: disk diffusion assay; conditions: kakadumycin B at 10 μg; control antibiotic; MHA 35° C.
[34] = 10 micrograms per disk, ciprofloxacin 5, vancomycin 30 micrograms per disk, 35° C.
[35] = A3-5-1 10 micrograms, Cip 5 micrograms
[36] = kakadumycin B at 10 μg, control antibiotic
[37] = kakadumycin B at 10 μg, control antibiotic, MHA 35° C.

O=C(O)c1cn(C2CC2)c2cc(N3CCNCC3)c(F)cc2c1=O [Ciprofloxacin, reference compound]
Disk Diffusion, Pseudomonas aeruginosa 27853 [1]: 30 mm (cipro)
diameter of the zone of inhibition, Enterococcus faecalis ATCC 51299 [2, 34]: 22 mm
Disk Diffusion, Enterococcus faccalis (VRE) 51299 [2]: 23 mm (cipro)
diameter of the zone of inhibition, Acinetobacter sp. ATCC 49137 ([3]; 10 micrograms per disk, ciprofloxacin 5, vancomycin 30 micrograms per disk, grown at 30° C.): 29 mm
Disk Diffusion, Acinetobacter spp. 49137 [3]: 26 mm (cipro)
Disk Diffusion, Streptococcus pneumoniae 49619 [4]: 24 mm (cipro)
diameter of the zone of inhibition, Bacillus anthracis K8902 (Bacillus anthracis K8902): 16 mm
Disk Diffusion, Shigella dysenteriae 11835 [5]: 24 mm (cipro)
diameter of the zone of inhibition, Enterococcus faecium ATCC 49624 [6]: 15 mm
diameter of the zone of inhibition, Enterococcus faecium ATCC 51559 [7]: 13 mm
% [3H]thymidine (DNA synthesis) incorporation of that of the untreated culture ([8]; 5 min): 36%
% [3H]thymidine (DNA synthesis) incorporation of that of the untreated culture ([8]; 10 min): 35%
Disk Diffusion, Burkholderia cepacia 25416 [9]: 24 mm (cipro)
Disk Diffusion, Klebsiella pneumoniae 10031 [10, 35]: Cip (5 micro-)-34 mm
Disk Diffusion, Klebsiella pneumoniae 10031 [10, 36]: 32 mm (cipro)
Disk Diffusion, Staphylococcus aureus (MRSA) 33591 [11, 35]: Cip (5 micro-)-26 mm
Disk Diffusion, Staphylococcus aureus (MRSA) 33591 [11, 36]: 27 mm (cipro)

CN[C@H](CC(C)C)C(=O)N[C@H]1C(=O)N[C@@H](CC(N)=O)C(=O)N[C@H]2C(=O)N[C@H]3C(=O)N[C@H](C(=O)N[C@H](C(=O)O)c4cc(O)cc(O)c4-c4cc3ccc4O)[C@H](O)c3ccc(c(Cl)c3)Oc3cc2cc(c3O[C@@H]2O[C@H](CO)[C@@H](O)[C@H](O)[C@H]2O[C@H]2C[C@](C)(N)[C@H](O)[C@H](C)O2)Oc2ccc(cc2Cl)[C@H]1O [Vancomycin, reference compound]
diameter of the zone of inhibition, Enterococcus faecalis ATCC 29212 [12, 34]: 18 mm
diameter of the zone of inhibition, Staphylococcus aureus ATCC 29213 [13, 34]: 15 mm
diameter of the zone of inhibition, Neisseria gonnorhea ATCC 49226 [14]: 13 mm
diameter of the zone of inhibition, Streptococcus pneumoniae ATCC 49619 ([4]; 10 micrograms per disk, ciprofloxacin 5, vancomycin 30 micrograms per disk, MHA with 5% dsb. and 5% CO2): 20 mm
diameter of the zone of inhibition, Enterococcus faecium ATCC 49624 [6]: 22 mm
diameter of the zone of inhibition, Enterococcus faecium ATCC 51559 [7]: 0 mm
MIC [15]: 2 µg/mL (≈ 1.38 µM)
MIC (S. epidermis 12228): 1 µg/mL (≈ 0.69 µM)
MIC (E. faecium 49624): 0.5 µg/mL (≈ 0.345 µM)
MIC (S. aureus 29213): 1 µg/mL (≈ 0.69 µM)
MIC [16]: 1 µg/mL (≈ 0.69 µM)
MIC [17]: 1 µg/mL (≈ 0.69 µM)
MIC [18]: 1 µg/mL (≈ 0.69 µM)
MIC [19]: 1 µg/mL (≈ 0.69 µM)
MIC [20]: 0.125 µg/mL (≈ 0.0863 µM)
MIC [21]: 2 µg/mL (≈ 1.38 µM)
MIC [22]: 8 µg/mL (≈ 5.52 µM)
MIC [23]: 0.25 µg/mL (≈ 0.173 µM)
MIC [24]: 0.25 µg/mL (≈ 0.173 µM)
1×MIC against Bacillus subtilis (B. subtilis 1A757): 0.25 micrograms/ml
increase of MICs when DNA was added (B. subtilis 1A757): not affected
MIC (B. subtilis 1A757; Bacillus subtilis, 1A757, read-out: MIC B. subtilis 1A757): 0.125 µg/mL (≈ 0.0863 µM)
MIC (S. aureus ATCC 6583P): 0.5 µg/mL (≈ 0.345 µM)
% [3H]N-acetyl glucosamine (Cell wall synthesis) incorporation of that of the untreated culture ([25]; 5 min): 33%
% [3H]N-acetyl glucosamine (Cell wall synthesis) incorporation of that of the untreated culture ([25]; 10 min): 41%
MIC [26]: 0.06 µg/mL (≈ 0.0414 µM)

kakadumycin B
Disk Diffusion, Pseudomonas aeruginosa 27853 [1]: R
Disk Diffusion, Enterococcus faecalis 29212 [12, 37]: 20 mm
Disk Diffusion, Enterococcus faccalis (VRE) 51299 [2]: 21 mm
Disk Diffusion, Staphylococcus aureus 29213 [13, 37]: 17 mm
Disk Diffusion, Acinetobacter spp. 49137 [3]: 11 mm
Disk Diffusion, Streptococcus pneumoniae 49619 [4]: 22 mm
Disk Diffusion, Escherichia coli 25922 [27]: 8 mm
Disk Diffusion, Staphylococcus epidermidis 12228 (S. epidermis ATCC 12228): 23 mm
Disk Diffusion, Stenotrophomas maltophilia 13637 [28]: 13 mm
Disk Diffusion, Shigella dysenteriae 11835 [5]: 10 mm
Disk Diffusion, Enterococcus faecium 49624 [6, 37]: 22 mm
IC50 human breast cancer cell line BT 20 [29]: 0.008 µg/mL
IC50 cytotoxicity, human mammary epithelial cells [30]: 10.5±1.4 nanograms/ml
concentration causing detectable lysis of human red blood cells (human red blood cells): > 80 micrograms/ml
Disk Diffusion, Burkholderia cepacia 25416 [9]: R
Disk Diffusion, Klebsiella pneumoniae 10031 [10, 36]: R
Disk Diffusion, Salmonella typhimurium 13311 [31]: R
Disk Diffusion, Micrococcus luteus 9341 [32]: 28 mm
Disk Diffusion, Staphylococcus aureus (MRSA) 33591 [11, 36]: 22 mm
Disk Diffusion, Staphylococcus aureus (GISA) 700699 [33]: 22 mm
